Active and inactive are the calls of the source. The rule behind the calls is not given here.
Experiments:
[1] = (§1) Inhibition of LPS-induced NO production in mouse BV-2 cells at 10 uM measured after 24 hrs followed by induced with LPS for another 24 hrs by ELISA relative to control; assay type: functional
[2] = Cytotoxicity against mouse BV-2 cells assessed as cell viability at 10 uM measured after 24 hrs by MTT assay relative to control; assay type: toxicity, cell-based; conditions: read-out: Activity
BV-2 [3] = assay: as §1; assay type: functional
[4] = Permeability of compound in PBS/EtOH (70:30) buffer incubated for 18 hrs by PAMPA-BBB assay
BV-2 [5] = assay: Anti-inflammatory activity against LPS-induced mouse BV-2 cells assessed as decrease in LPS-induced Cyclooxygenase-2 mRNA expression at 20 uM incubated for 4 hrs followed by LPS induced for 12 hrs by RT-PCR analysis relative to control; assay type: functional, cell-based; conditions: time 16.0 hrs

| SMILES | inhibition at 10 µM [1] [%] | viability at 24 h, 10 µM [2] [%] | inhibition (BV-2 [3]) | log Pe [4] | Activity (BV-2 [5]) |
| --- | --- | --- | --- | --- | --- |
| Fc1ccc(Cn2ccc3c(Nc4ccc5c(c4)OCO5)ncnc32)c(Cl)c1 | 46.8 | 96.9 | – | – | – |
| O=c1[nH]c2ccc(Nc3ncnc4c3ccn4Cc3ccccc3)cc2[nH]1 | 76.6 | 99.7 | – | – | – |
| O=c1[nH]c2ccc(Nc3ncnc4c3ccn4Cc3cc(C(F)(F)F)cc(C(F)(F)F)c3)cc2[nH]1 | – | 58.5 | inactive | – | – |
| O=c1[nH]c2ccc(Nc3ncnc4c3ccn4Cc3ccc(F)cc3Cl)cc2o1 | 54.3 | 85.7 | – | – | – |
| O=c1[nH]c2ccc(Nc3ncnc4c3ccn4Cc3cccc(F)c3Cl)cc2[nH]1 | – | 42.2 | inactive | – | – |
| Cc1ccc(Cn2ccc3c(Nc4ccc5[nH]c(=O)[nH]c5c4)ncnc32)cc1 | – | 77.2 | inactive | – | – |
| COc1cc(Cn2ccc3c(Nc4ccc5[nH]c(=O)[nH]c5c4)ncnc32)cc(OC)c1 | 42.5 | 107 | – | – | – |
| O=c1[nH]c2ccc(Nc3ncnc4c3ccn4Cc3c(F)cccc3Cl)cc2[nH]1 | – | 77.2 | inactive | – | – |
| O=c1[nH]c2ccc(Nc3ncnc4c3ccn4Cc3ccc(F)cc3Cl)cc2[nH]1 | 78.5 | 84.5 | – | – | – |
| O=c1[nH]c2ccc(Nc3ncnc4c3ccn4Cc3ccc(I)cc3)cc2[nH]1 | 74.5 | 98.7 | – | – | – |
| O=c1[nH]c2ccc(Nc3ncnc4c3ccn4Cc3cccc4ccccc34)cc2[nH]1 | – | 59.7 | inactive | – | – |
| Cn1ncc2cc(Nc3ncnc4c3ccn4Cc3ccc(F)cc3Cl)ccc21 | – | 79.2 | inactive | – | – |
| O=c1[nH]c2ccc(Nc3ncnc4c3cnn4Cc3cccc(Cl)c3F)cc2[nH]1 | – | 53.3 | inactive | – | – |
| O=c1[nH]c2ccc(Nc3ncnc4c3cnn4Cc3cc(F)cc(Cl)c3)cc2[nH]1 | 61.7 | 92.9 | – | – | – |
| O=c1[nH]c2ccc(Nc3ncnc4c3ccn4Cc3ccc(Cl)cc3)cc2[nH]1 | 71.3 | 91.7 | – | – | – |
| O=c1[nH]c2ccc(Nc3ncnc4c3ccn4Cc3c(Cl)cccc3Cl)cc2[nH]1 | – | 57.6 | inactive | – | – |
| O=c1[nH]c2ccc(Nc3ncnc4c3ccn4Cc3cc(F)cc(Cl)c3)cc2[nH]1 | 45.7 | 104 | – | – | – |
| O=C(Cn1ccc2c(Nc3ccc4[nH]c(=O)[nH]c4c3)ncnc21)c1ccccc1 | – | 74.3 | inactive | – | – |
| O=c1[nH]c2ccc(Nc3ncnc4c3cnn4Cc3cccc(F)c3Cl)cc2[nH]1 | 96.2 | 83.2 | – | – | – |
| O=c1[nH]c2ccc(Nc3ncnc4c3ccn4Cc3ccc(Cl)c(F)c3)cc2[nH]1 | 103 | 83.1 | – | – | – |
| O=c1[nH]c2ccc(Nc3ncnc4c3cnn4Cc3cc(Cl)cc(Cl)c3)cc2[nH]1 | – | 52.2 | inactive | – | – |
| O=c1[nH]c2ccc(Nc3ncnc4c3ccn4Cc3ccc(F)cc3F)cc2[nH]1 | 54.3 | 98.2 | – | – | – |
| Cc1cccc(Cn2ccc3c(Nc4ccc5[nH]c(=O)[nH]c5c4)ncnc32)c1 | – | 59 | inactive | – | – |
| Fc1ccc(Cn2ccc3c(Nc4ccc5scnc5c4)ncnc32)c(Cl)c1 | – | 61.7 | inactive | – | – |
| O=c1[nH]c2ccc(Nc3ncnc4c3ccn4Cc3cccc(Cl)c3F)cc2[nH]1 | – | 73 | inactive | – | – |

| SMILES | inhibition at 10 µM [1] [%] | viability at 24 h, 10 µM [2] [%] | inhibition (BV-2 [3]) | log Pe [4] | Activity (BV-2 [5]) |
| --- | --- | --- | --- | --- | --- |
| COc1cc(Cn2ccc3c(Nc4ccc5c(c4)OCO5)ncnc32)cc(OC)c1 | 70.2 | 93.2 | – | – | – |
| O=c1[nH]c2ccc(Nc3ncnc4c3cnn4Cc3ccc(Cl)cc3F)cc2[nH]1 | – | 57.8 | inactive | – | – |
| O=c1[nH]c2ccc(Nc3ncnc4c3ccn4Cc3ccc(F)c(Cl)c3)cc2[nH]1 | – | 57.3 | inactive | – | – |
| CC1(C)S[C@@H]2[C@H](NC(=O)Cc3ccccc3)C(=O)N2[C@H]1C(=O)[O-].[Na+] [PENICILLIN G SODIUM] | – | – | – | -6.06 | – |
| COc1cc(Cn2ccc3c(Nc4ccc5[nH]c(=O)oc5c4)ncnc32)cc(OC)c1 | – | 59.3 | inactive | – | – |
| COc1ccc(Cn2ccc3c(Nc4ccc5[nH]c(=O)[nH]c5c4)ncnc32)cc1 | 76.6 | 115 | – | – | – |
| O=c1[nH]c2ccc(Nc3ncnc4c3ccn4Cc3ccc(Cl)cc3F)cc2[nH]1 | – | 72.1 | inactive | – | – |
| COc1ccc(Cn2ccc3c(Nc4ccc5[nH]c(=O)[nH]c5c4)ncnc32)cc1OC | – | 75.2 | inactive | – | – |
| O=C(Cn1ccc2c(Nc3ccc4[nH]c(=O)[nH]c4c3)ncnc21)N1CCOCC1 | 54.3 | 102 | – | – | – |
| CCn1cc(C(=O)O)c(=O)c2cc(F)c(N3CCNCC3)nc21 [ENOXACIN] | – | – | – | -6.24 | – |
| COc1ccc2c3c1O[C@H]1C[C@@H](O)C=C[C@@]31CCNC2 | 55.7 | 91.2 | – | – | Active |
| Cc1ccccc1Cn1ccc2c(Nc3ccc4[nH]c(=O)[nH]c4c3)ncnc21 | 63.5 | 81.8 | – | – | – |
| COc1cc([C@H]2OC[C@H]3[C@@H]2CO[C@@H]3c2cc(OC)c(O)c(OC)c2)cc(OC)c1O [SYRINGARESINOL] | 75.6 | 91 | – | – | – |
| COc1cc(Cn2ccc3c(Nc4ccc5cn[nH]c5c4)ncnc32)cc(OC)c1 | 77.7 | 118 | – | – | – |
| O=c1[nH]c2ccc(Nc3ncnc4c3ccn4Cc3cccc4cccnc34)cc2[nH]1 | 43.8 | 84.7 | – | – | – |
| O=c1[nH]c2ccc(Nc3ncnc4c3ccn4Cc3cc(Cl)ccc3F)cc2[nH]1 | – | 70.3 | inactive | – | – |
| O=c1[nH]c2ccc(Nc3ncnc4c3ccn4Cc3ccc4c(c3)OCO4)cc2[nH]1 | 56.3 | 89.3 | – | – | – |
| O=c1[nH]c2ccc(Nc3ncnc4c3ccn4Cc3cc(F)ccc3F)cc2[nH]1 | – | 50.7 | inactive | – | – |
| COc1cc(Cn2ccc3c(Nc4ccc5scnc5c4)ncnc32)cc(OC)c1 | – | 84.5 | inactive | – | – |
| O=C1Cc2cc(Nc3ncnc4c3ccn4Cc3ccc(F)cc3Cl)ccc2N1 | – | 56.6 | inactive | – | – |
| COc1cc(Cn2ccc3c(Nc4ccc5c(c4)CC(=O)N5)ncnc32)cc(OC)c1 | – | 53 | inactive | – | – |
| Fc1ccc(Cn2ccc3c(Nc4ccc5cn[nH]c5c4)ncnc32)c(Cl)c1 | – | 76.2 | inactive | – | – |
| COc1cc(Cn2ccc3c(Nc4ccc5c(cnn5C)c4)ncnc32)cc(OC)c1 | 63.8 | 62.5 | – | – | – |
| COc1cccc(Cn2ccc3c(Nc4ccc5[nH]c(=O)[nH]c5c4)ncnc32)c1 | 63.8 | 88.5 | – | – | – |

— ChEMBL document CHEMBL6096669, “Design and synthesis of novel derivatives of bisepoxylignans as potent anti-inflammatory agents involves the modulation of the M1/M2 microglia phenotype via TLR4/NF-κB signaling pathway” (Eur J Med Chem, 2025)
